In US20240374591A1, “CEREBLON BINDING COMPOUNDS, COMPOSITIONS THEREOF, AND METHODS OF TREATMENT THEREWITH” (CELGENE CORPORATION, priority 2021, published 2024):
Structures can show the parent of a compound that is named as a salt.

Biological target: T1, AR in VCaP cells (Homo sapiens, UniProt P10275)
T1 construct: endogenous in cells; host or cells: VCaP cells
T1 sequence (P10275 1-920): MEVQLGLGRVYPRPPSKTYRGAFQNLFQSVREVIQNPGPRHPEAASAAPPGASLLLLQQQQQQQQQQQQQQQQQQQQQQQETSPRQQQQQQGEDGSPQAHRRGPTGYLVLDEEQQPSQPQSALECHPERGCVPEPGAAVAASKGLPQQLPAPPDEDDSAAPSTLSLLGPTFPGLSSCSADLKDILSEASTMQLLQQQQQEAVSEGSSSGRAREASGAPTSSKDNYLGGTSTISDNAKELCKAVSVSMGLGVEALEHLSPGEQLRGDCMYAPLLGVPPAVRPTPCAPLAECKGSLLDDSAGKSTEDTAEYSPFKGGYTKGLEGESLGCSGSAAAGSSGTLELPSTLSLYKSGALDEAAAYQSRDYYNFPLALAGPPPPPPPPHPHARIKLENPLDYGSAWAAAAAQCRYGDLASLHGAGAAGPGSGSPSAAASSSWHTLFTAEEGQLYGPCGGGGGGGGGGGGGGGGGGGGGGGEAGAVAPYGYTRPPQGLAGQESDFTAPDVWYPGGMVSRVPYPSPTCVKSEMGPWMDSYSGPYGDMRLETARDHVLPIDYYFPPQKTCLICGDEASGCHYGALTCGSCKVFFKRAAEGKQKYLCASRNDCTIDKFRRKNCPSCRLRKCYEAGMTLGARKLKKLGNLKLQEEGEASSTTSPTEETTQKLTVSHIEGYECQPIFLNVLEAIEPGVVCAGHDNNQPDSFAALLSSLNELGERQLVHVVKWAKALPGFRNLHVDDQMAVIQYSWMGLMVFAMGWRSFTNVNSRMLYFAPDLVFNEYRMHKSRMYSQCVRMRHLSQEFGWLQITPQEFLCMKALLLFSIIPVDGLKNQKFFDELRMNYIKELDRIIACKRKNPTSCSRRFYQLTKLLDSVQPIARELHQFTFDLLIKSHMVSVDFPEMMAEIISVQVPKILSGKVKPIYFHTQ
Assay: VCAP AR Degradation Assay (AR ELISA, 24 h)
Type: cell-based
Conditions: for DC50: concentration giving 50% AR degradation vs DMSO control; for remaining activity at up to 5 µM: lowest measured AR level normalized to DMSO control, top concentration 5 μM, read-out: Y
Protocol: VCAP AR Degradation Assay. Test compounds were pre-dispensed into a Corning CellBind 96-well clear bottom plate (Cat #3300) using an acoustic dispenser to make a 10-point concentration series at 1:3 dilution for each compound. The final top concentration of each compound was 5 μM. DMSO at a final concentration of 0.1% was used as a control. VCaP cells cultured in DMEM with 8% fetal bovine serum (FBS) were seeded at 50K cells per well in a 200 μL volume into the compound plate and incubated at 37° C. in a CO2 incubator for 24 h. The medium was carefully removed from the cells and the plate was placed on ice. One hundred μL of ice-cold 1× cell lysis buffer from Cell Signaling Technologies (Cat #9803) was added to each well of the cells and the plate was incubated at 4° C. on a shaker for 1 h. Fifteen μL of cell lysate was used for AR ELISA detection using a PathScan Total Sandwich AR ELISA kit (Cell Signaling Technology, Cat #12580). AR levels in compound-treated wells were normalized to that of DMSO control and expressed as percent of control (PoC) (y). A Four Parameter Logistic Model (Sigmoidal Dose-Response Model) was used to determine the compound's DC50, and EC50, using the following equation: […]
The lowest measured AR level normalized to DMSO control in response to compound treatment, termed Y value, was used to characterize the compound-mediated AR degradation efficiency.

Row | SMILES | DC50 [nM] | remaining activity at up to 5 µM [%]
1 | C[C@@H]1C[C@@H](CCO[C@H]2CC[C@H](N3C(=S)N(c4ccc(C#N)c(C(F)(F)F)c4)C(=O)C3(C)C)CC2)C[C@H](C)N1CC(=O)Nc1ccc(C2CCC(=O)NC2=O)nc1 (stereo partly drawn) [Cmpd 14, 2-((2R,4r,6S)-4-(2-((trans-4-(3-(4-Cyano-3-(trifluoromethyl)phenyl)-5,5-dimethyl-4-oxo-2-thioxoimidazolidin-1-yl)cyclohexyl)oxy)ethyl)-2,6-dimethylpiperidin-1-yl)-N-(6-(2,6-dioxopiperidin-3-yl)pyridin-3-yl)acetamide hydrochloride] | ≤ 5 | 20 to 30
2 | C[C@@H]1CN(CCCC[C@H]2CC[C@H](N3C(=S)N(c4ccc(C#N)c(C(F)(F)F)c4)C(=O)C3(C)C)CC2)C[C@H](C)N1CC(=O)Nc1ccc(N2CCC(=O)NC2=O)nc1 [Cmpd 15, 2-((2R,6S)-4-(4-((trans)-4-(3-(4-Cyano-3-(trifluoromethyl)phenyl)-5,5-dimethyl-4-oxo-2-thioxoimidazolidin-1-yl)cyclohexyl)butyl)-2,6-dimethylpiperazin-1-yl)-N-(6-(2,4-dioxotetrahydropyrimidin-1(2H)-yl)pyridin-3-yl)acetamide] | 100 to 10000 | 30 to 70
3 | C[C@@H]1CN(CCCC[C@H]2CC[C@H](N3C(=S)N(c4ccc(C#N)c(C(F)(F)F)c4)C(=O)C3(C)C)CC2)C[C@H](C)N1CC(=O)Nc1ccc(C2CCC(=O)NC2=O)nc1 (stereo partly drawn) [Cmpd 16, 2-((2R,6S)-4-(4-((trans)-4-(3-(4-Cyano-3-(trifluoromethyl)phenyl)-5,5-dimethyl-4-oxo-2-thioxoimidazolidin-1-yl)cyclohexyl)butyl)-2,6-dimethylpiperazin-1-yl)-N-(6-(2,6-dioxopiperidin-3-yl)pyridin-3-yl)acetamide] | ≤ 5 | 20 to 30
4 | C[C@@H]1C[C@H](CCO[C@H]2CC[C@H](N3C(=S)N(c4ccc(C#N)c(C(F)(F)F)c4)C(=O)C3(C)C)CC2)C[C@H](C)N1CC(=O)Nc1ccc(C2CCC(=O)NC2=O)nc1 (stereo partly drawn) [Cmpd 17, 2-((2R,4r,6S)-4-(2-(((trans)-4-(3-(4-Cyano-3-(trifluoromethyl)phenyl)-5,5-dimethyl-4-oxo-2-thioxoimidazolidin-1-yl)cyclohexyl)oxy)ethyl)-2,6-dimethylpiperidin-1-yl)-N-(6-(2,6-dioxopiperidin-3-yl)pyridin-3-yl)acetamide] | ≤ 5 | 20 to 30
5 | C[C@@H]1C[C@H](CCO[C@H]2CC[C@H](N3C(=S)N(c4cnc(C#N)c(C(F)(F)F)c4)C(=O)C3(C)C)CC2)C[C@H](C)N1CC(=O)Nc1ccc(C2CCC(=O)NC2=O)nc1 (stereo partly drawn) [Cmpd 18, 2-((2R,4r,6S)-4-(2-(((trans)-4-(3-(6-Cyano-5-(trifluoromethyl)pyridin-3-yl)-5,5-dimethyl-4-oxo-2-thioxoimidazolidin-1-yl)cyclohexyl)oxy)ethyl)-2,6-dimethylpiperidin-1-yl)-N-(6-(2,6-dioxopiperidin-3-yl)pyridin-3-yl)acetamide] | ≤ 5 | 0 to 20
6 | C[C@@H]1C[C@@H](CCO[C@H]2CC[C@H](N3C(=S)N(c4cnc(C#N)c(C(F)(F)F)c4)C(=O)C3(C)C)CC2)C[C@H](C)N1CC(=O)Nc1ccc(C2CCC(=O)NC2=O)nc1 (stereo partly drawn) [Cmpd 19, 2-((2R,4s,6S)-4-(2-(((trans)-4-(3-(6-Cyano-5-(trifluoromethyl)pyridin-3-yl)-5,5-dimethyl-4-oxo-2-thioxoimidazolidin-1-yl)cyclohexyl)oxy)ethyl)-2,6-dimethylpiperidin-1-yl)-N-(6-(2,6-dioxopiperidin-3-yl)pyridin-3-yl)acetamide] | ≤ 5 | 20 to 30
7 | C[C@@H]1C[C@H](OCCC[C@H]2CC[C@H](N3C(=S)N(c4ccc(C#N)c(C(F)(F)F)c4)C(=O)C3(C)C)CC2)C[C@H](C)N1CC(=O)Nc1ccc(C2CCC(=O)NC2=O)nc1 (stereo partly drawn) [Cmpd 20, 2-((2R,4r,6S)-4-(3-((trans)-4-(3-(4-Cyano-3-(trifluoromethyl)phenyl)-5,5-dimethyl-4-oxo-2-thioxoimidazolidin-1-yl)cyclohexyl)propoxy)-2,6-dimethylpiperidin-1-yl)-N-(6-(2,6-dioxopiperidin-3-yl)pyridin-3-yl)acetamide] | 5 to 10 | 20 to 30
8 | CC1(C)C(=O)N(c2cnc(C#N)c(C(F)(F)F)c2)C(=S)N1[C@H]1CC[C@H](CCCN2CCN(CC(=O)Nc3ccc(C4CCC(=O)NC4=O)nc3)[C@@H](C(F)(F)F)C2)CC1 (stereo partly drawn) [Cmpd 21, 2-((R)-4-(3-((trans)-4-(3-(6-Cyano-5-(trifluoromethyl)pyridin-3-yl)-5,5-dimethyl-4-oxo-2-thioxoimidazolidin-1-yl)cyclohexyl)propyl)-2-(trifluoromethyl)piperazin-1-yl)-N-(6-(2,6-dioxopiperidin-3-yl)pyridin-3-yl)acetamide] | ≤ 5 | 0 to 20
9 | CC1(C)C(=O)N(c2ccc(C#N)c(C(F)(F)F)c2)C(=S)N1[C@H]1CC[C@H](CCCN2CCN(CC(=O)Nc3ccc(C4CCC(=O)NC4=O)nc3)[C@@H](C(F)(F)F)C2)CC1 (stereo partly drawn) [Cmpd 22, 2-((R)-4-(3-((trans)-4-(3-(4-Cyano-3-(trifluoromethyl)phenyl)-5,5-dimethyl-4-oxo-2-thioxoimidazolidin-1-yl)cyclohexyl)propyl)-2-(trifluoromethyl)piperazin-1-yl)-N-(6-(2,6-dioxopiperidin-3-yl)pyridin-3-yl)acetamide] | 10 to 100 | 20 to 30
10 | CC1(C)C(=O)N(c2cnc(C#N)c(C(F)(F)F)c2)C(=S)N1[C@H]1CC[C@H](OCCCN2CCN(CC(=O)Nc3ccc(C4CCC(=O)NC4=O)nc3)[C@@H](C(F)(F)F)C2)CC1 (stereo partly drawn) [Cmpd 23, 2-((R)-4-(3-(((trans)-4-(3-(6-Cyano-5-(trifluoromethyl)pyridin-3-yl)-5,5-dimethyl-4-oxo-2-thioxoimidazolidin-1-yl)cyclohexyl)oxy)propyl)-2-(trifluoromethyl)piperazin-1-yl)-N-(6-(2,6-dioxopiperidin-3-yl)pyridin-3-yl)acetamide] | ≤ 5 | 0 to 20
11 | CC1(C)C(=O)N(c2cnc(C#N)c(C(F)(F)F)c2)C(=S)N1[C@H]1CC[C@H](OCCN2CCN(CC(=O)Nc3ccc(C4CCC(=O)NC4=O)nc3)[C@@H](C(F)(F)F)C2)CC1 (stereo partly drawn) [Cmpd 24, 2-((R)-4-(2-(((trans)-4-(3-(6-Cyano-5-(trifluoromethyl)pyridin-3-yl)-5,5-dimethyl-4-oxo-2-thioxoimidazolidin-1-yl)cyclohexyl)oxy)ethyl)-2-(trifluoromethyl)piperazin-1-yl)-N-(6-(2,6-dioxopiperidin-3-yl)pyridin-3-yl)acetamide] | ≤ 5 | 20 to 30
12 | CC1(C)C(=O)N(c2ccc(C#N)c(C(F)(F)F)c2)C(=S)N1[C@H]1CC[C@H](OCCCN2CCN(CC(=O)Nc3ccc(C4CCC(=O)NC4=O)nc3)[C@@H](C(F)(F)F)C2)CC1 (stereo partly drawn) [Cmpd 25, 2-((R)-4-(3-(((trans)-4-(3-(4-Cyano-3-(trifluoromethyl)phenyl)-5,5-dimethyl-4-oxo-2-thioxoimidazolidin-1-yl)cyclohexyl)oxy)propyl)-2-(trifluoromethyl)piperazin-1-yl)-N-(6-(2,6-dioxopiperidin-3-yl)pyridin-3-yl)acetamide] | ≤ 5 | 20 to 30
